Assays:
Format in all cases: cell-based
[1] = system: OCI-LY-10 cells; assay: BTK (wt) cell proliferation, OCI-LY-10 (CellTiter-Glo, 72 h); conditions: Homo sapiens, OCI-Ly10, 72 h, OCI-LY-10 cells, 72 h, CellTiter-Glo; read-out: BTK WT OCI-LY-10 GI50;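 also: viable cells quantified via cellular ATP luminescence, proliferation given as percent of DMSO control after subtracting a duplicate plate read at time of dosing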
[2] = system: Her2 exon 20 insertion YVMA transduced NIH-3T3 cell line; assay: Cell proliferation, Her2 YVMAins NIH-3T3 (CellTiter-Glo, 72 h); conditions: Mus musculus, NIH3T3, 72 h, Her2 YVMAins cells, 72 h proliferation; read-out: Her2 Exon 20 YVMA insertion GI50;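 also: viable cells quantified by ATP luminescence, growth over a day-zero baseline plate expressed as percent of DMSO control growth, compound dilution series in 10% FBS medium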
[3] = system: NCI-H1975 EGFR L858R/T790M cells; assay: Cell proliferation, NCI-H1975 EGFR L858R/T790M (CellTiter-Glo, 72 h); conditions: Homo sapiens, NCI-H1975, 72 h, NCI-H1975, 72 h proliferation; read-out: EGFR L858R and T790M mutation GI50;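 also: viable cells quantified by luciferase-based ATP luminescence, proliferation expressed relative to DMSO-treated wells (100%) after subtracting a parallel plate read at the time of dosing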
[4] = target: T1, human EGFR exon 20 H773_V774insNPH (Homo sapiens, UniProt P00533, INS773NPH); assay: EGFR Exon20 NPH insertion cellular phosphorylation inhibition (MSD pEGFR Y1068/total EGFR); conditions: Ba/F3 EGFR NPH ins cells, 4 h compound, p-EGFR(Y1068)/total EGFR;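 also: IL3-independent Ba/F3 cells with constitutively phosphorylated EGFR, compound exposure at 37 °C under 5% CO2, electrochemiluminescent MSD measurement of the p-EGFR to total EGFR ratio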
T1 construct: host or cells: Ba/F3
T1 sequence (P00533 with tags, fused parts or gaps INS773NPH): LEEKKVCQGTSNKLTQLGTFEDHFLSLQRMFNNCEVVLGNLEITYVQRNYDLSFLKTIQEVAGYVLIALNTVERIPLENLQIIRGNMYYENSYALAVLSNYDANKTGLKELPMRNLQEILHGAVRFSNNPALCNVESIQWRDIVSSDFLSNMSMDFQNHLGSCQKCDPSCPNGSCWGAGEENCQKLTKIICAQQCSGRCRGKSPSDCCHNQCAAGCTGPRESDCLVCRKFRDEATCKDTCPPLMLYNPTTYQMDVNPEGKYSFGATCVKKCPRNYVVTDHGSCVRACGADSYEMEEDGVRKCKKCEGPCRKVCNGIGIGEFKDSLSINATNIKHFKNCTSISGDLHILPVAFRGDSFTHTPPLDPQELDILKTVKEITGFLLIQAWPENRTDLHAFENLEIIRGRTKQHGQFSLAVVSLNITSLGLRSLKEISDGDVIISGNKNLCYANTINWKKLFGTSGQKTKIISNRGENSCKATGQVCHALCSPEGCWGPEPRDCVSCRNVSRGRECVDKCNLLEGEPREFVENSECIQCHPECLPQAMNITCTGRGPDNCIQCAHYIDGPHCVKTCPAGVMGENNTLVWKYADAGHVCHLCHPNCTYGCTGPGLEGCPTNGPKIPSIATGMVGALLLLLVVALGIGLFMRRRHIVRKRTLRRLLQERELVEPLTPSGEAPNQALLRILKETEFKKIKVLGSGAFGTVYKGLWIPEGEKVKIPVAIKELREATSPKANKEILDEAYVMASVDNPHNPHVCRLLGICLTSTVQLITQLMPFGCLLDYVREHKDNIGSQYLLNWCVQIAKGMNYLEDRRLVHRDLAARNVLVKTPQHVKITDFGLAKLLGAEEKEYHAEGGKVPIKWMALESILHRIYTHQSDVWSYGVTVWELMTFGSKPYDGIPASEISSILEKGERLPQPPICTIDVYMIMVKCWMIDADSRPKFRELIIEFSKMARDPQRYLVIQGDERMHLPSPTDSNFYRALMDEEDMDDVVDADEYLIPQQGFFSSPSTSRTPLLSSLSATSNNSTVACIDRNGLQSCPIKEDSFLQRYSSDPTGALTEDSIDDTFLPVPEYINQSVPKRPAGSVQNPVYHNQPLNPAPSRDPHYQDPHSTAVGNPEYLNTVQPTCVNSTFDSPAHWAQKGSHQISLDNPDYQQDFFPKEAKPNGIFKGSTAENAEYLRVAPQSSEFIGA

[5] = system: Ba/F3 EGFR ASV ins cells; assay: Cell proliferation, Ba/F3 EGFR ASV ins (CellTiter-Glo, 72 h); conditions: Ba/F3 EGFR, 72 h, Ba/F3 EGFR ASV ins, 72 h proliferation; read-out: EGFR Exon20 ASV insertion GI50;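 also: IL3-independent Ba/F3 cells transduced with EGFR V769_D770insASV, cellular ATP luminescence after compound exposure, growth relative to DMSO control with the day-0 baseline reading subtracted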
[6] = system: Ri-1 cells; assay: BTK (wt) cell proliferation, Ri-1 (CellTiter-Glo, 72 h); conditions: Ri-1, 72 h, Ri-1 cells, 72 h, CellTiter-Glo; read-out: BTK WT Ri-1 GI50;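 also: viable cells quantified as cellular ATP luminescence, proliferation normalized to a time-zero plate and the DMSO control, compounds tested across a dilution series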
[7] = target: T2, human Her2 exon 20 insertion mutation YVMA (Homo sapiens, UniProt P04626, INS775YVMA); assay: Her2 Exon 20 YVMA insertion cellular phosphorylation inhibition (MSD p-Her2 Y1248/total Her2); conditions: Her2 YVMAins cells, 4 h compound;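 also: lentivirally transduced NIH-3T3 cells in 1% FBS medium, electrochemiluminescent MSD read-out, graded compound concentrations at 37 °C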
T2 construct: expressed in transfected cells; host or cells: NIH-3T3, lentiviral transduction, puromycin selection
T2 sequence (P04626 with tags, fused parts or gaps INS775YVMA): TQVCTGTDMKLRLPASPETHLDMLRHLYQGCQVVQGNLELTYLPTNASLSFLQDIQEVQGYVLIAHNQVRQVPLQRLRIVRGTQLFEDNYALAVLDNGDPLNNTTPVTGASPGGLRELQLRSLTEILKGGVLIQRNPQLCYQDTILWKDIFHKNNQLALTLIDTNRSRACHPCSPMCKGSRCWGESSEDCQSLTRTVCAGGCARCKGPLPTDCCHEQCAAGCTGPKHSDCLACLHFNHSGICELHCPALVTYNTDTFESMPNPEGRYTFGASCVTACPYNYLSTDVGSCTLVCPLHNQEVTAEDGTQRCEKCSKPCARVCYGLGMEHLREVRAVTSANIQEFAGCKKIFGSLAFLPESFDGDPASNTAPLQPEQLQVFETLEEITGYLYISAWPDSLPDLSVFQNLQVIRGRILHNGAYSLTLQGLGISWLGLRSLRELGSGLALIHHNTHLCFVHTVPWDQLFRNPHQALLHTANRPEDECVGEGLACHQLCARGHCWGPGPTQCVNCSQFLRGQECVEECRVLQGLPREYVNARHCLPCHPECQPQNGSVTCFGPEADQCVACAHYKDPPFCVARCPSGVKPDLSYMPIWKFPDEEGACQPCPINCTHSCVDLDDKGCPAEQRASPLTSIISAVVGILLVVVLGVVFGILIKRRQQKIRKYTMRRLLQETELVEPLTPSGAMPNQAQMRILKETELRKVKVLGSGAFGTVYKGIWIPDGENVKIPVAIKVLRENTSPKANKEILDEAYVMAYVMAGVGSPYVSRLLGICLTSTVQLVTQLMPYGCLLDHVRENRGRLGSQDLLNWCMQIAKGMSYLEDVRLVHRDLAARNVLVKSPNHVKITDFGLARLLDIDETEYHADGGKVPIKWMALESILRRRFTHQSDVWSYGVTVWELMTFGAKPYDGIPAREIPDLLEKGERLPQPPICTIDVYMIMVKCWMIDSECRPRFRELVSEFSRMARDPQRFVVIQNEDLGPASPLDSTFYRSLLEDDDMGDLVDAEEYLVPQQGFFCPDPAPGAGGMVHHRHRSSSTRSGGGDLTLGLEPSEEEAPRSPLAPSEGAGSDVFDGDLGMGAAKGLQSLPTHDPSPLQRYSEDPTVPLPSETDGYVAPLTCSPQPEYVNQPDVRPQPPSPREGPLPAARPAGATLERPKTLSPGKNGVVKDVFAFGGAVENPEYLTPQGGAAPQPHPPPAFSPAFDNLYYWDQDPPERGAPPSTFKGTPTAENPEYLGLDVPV

[8] = system: TMD-8 cells; assay: BTK (wt) cell proliferation, TMD-8 (CellTiter-Glo, 72 h); conditions: Homo sapiens, TMD8, 72 h, TMD-8 cells, 72 h, CellTiter-Glo; read-out: BTK WT TMD-8 GI50;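 also: viable cells quantified by ATP-based luminescence, proliferation expressed as percent of DMSO control after subtracting a time-zero baseline plate read at dosing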
[9] = system: DB cells; assay: BTK (wt) cell proliferation, DB (CellTiter-Glo, 72 h); conditions: Homo sapiens, DB, DB cells, CellTiter-Glo, read-out: Non-BCR activated DB GI50;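 also: DB cells in 384-well plates given a dilution series of compound, viable cells read by ATP luminescence, growth expressed versus DMSO control after subtracting a time-zero plate reading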
[10] = target: T3, human EGFR exon 20 V769_D770insASV (Homo sapiens, UniProt P00533, INS769ASV); assay: EGFR Exon20 ASV insertion cellular phosphorylation inhibition (MSD pEGFR Y1068/total EGFR); conditions: Ba/F3 EGFR ASV ins cells, 4 h compound, p-EGFR(Y1068)/total EGFR;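 also: electrochemiluminescent readout on an MSD SECTOR Imager, IL3-independent transduced cells in medium with 1% FBS, compound concentration series at 37 °C and 5% CO2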
T3 construct: expressed in transfected cells; host or cells: Ba/F3 (DSMZ ACC-300), lentiviral transduction, puromycin selection, IL3 depletion
T3 sequence (P00533 with tags, fused parts or gaps INS769ASV): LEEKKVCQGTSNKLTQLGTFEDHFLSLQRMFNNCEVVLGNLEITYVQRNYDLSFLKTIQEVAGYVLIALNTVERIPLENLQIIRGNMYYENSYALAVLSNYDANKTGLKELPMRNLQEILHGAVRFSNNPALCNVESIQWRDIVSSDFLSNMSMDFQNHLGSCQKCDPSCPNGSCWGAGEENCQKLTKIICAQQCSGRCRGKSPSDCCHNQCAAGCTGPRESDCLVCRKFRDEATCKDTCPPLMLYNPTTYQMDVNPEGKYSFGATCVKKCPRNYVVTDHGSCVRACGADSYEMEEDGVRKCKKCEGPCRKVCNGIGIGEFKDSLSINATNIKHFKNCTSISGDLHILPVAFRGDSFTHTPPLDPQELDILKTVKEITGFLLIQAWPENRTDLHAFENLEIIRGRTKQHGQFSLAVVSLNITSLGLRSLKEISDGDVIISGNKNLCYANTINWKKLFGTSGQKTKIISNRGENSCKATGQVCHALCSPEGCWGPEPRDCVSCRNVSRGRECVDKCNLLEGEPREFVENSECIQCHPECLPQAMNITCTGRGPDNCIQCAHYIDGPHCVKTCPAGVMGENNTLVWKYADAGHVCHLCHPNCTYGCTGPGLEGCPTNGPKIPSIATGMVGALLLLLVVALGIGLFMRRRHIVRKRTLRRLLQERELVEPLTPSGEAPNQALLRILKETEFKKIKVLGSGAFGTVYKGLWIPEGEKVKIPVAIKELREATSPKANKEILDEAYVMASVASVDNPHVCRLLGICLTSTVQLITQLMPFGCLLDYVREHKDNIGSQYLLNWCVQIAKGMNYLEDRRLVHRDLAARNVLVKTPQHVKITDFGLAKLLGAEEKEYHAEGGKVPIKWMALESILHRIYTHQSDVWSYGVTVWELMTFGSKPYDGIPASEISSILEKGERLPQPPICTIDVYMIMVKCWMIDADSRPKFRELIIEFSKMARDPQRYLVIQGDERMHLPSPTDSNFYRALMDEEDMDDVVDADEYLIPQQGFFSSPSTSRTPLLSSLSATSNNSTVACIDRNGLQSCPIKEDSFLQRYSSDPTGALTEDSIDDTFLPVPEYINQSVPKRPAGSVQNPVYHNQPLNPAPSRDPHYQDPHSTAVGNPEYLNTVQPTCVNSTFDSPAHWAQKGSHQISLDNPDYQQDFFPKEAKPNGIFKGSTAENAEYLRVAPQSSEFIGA

[11] = system: WT EGFR cell line A-431; assay: Cell proliferation, WT EGFR A431 (CellTiter-Glo, 72 h); conditions: Homo sapiens, A-431, 72 h, A431, 72 h proliferation; read-out: EGFR WT A431 GI50;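 also: proliferation from a luminescent ATP viability signal, expressed as 100 × (treated minus time-zero plate) over (DMSO control minus time-zero plate), cells grown with 10% FBS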
[12] = system: Ba/F3 EGFR NPH ins cells; assay: Cell proliferation, Ba/F3 EGFR NPH ins (CellTiter-Glo, 72 h); conditions: Ba/F3 EGFR, 72 h, Ba/F3 EGFR NPH ins, 72 h proliferation; read-out: EGFR Exon20 NPH insertion GI50;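 also: IL3-independent cells carrying constitutively phosphorylated EGFR, compound dilution series, viable cells quantified by ATP luminescence, growth relative to DMSO wells after subtracting pre-dosing (day 0) baseline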
[13] = target: T4, EGFR L858R&T790M (Homo sapiens, UniProt P00533, L858R/T790M); assay: EGFR L858R and T790M cellular phosphorylation inhibition in NCI-H1975 (MSD); conditions: NCI-H1975 cells, 4 h compound, p-EGFR(Y1068)/total EGFR; read-out: EGFR L858R and T790M mutation IC50;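 also: phosphorylated and total EGFR detected by electrochemiluminescence, cells exposed to compound in medium containing 1% FBS at 37 °C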
T4 construct: host or cells: NCI-H1975
T4 sequence (P00533 25-1210 T790M/L858R): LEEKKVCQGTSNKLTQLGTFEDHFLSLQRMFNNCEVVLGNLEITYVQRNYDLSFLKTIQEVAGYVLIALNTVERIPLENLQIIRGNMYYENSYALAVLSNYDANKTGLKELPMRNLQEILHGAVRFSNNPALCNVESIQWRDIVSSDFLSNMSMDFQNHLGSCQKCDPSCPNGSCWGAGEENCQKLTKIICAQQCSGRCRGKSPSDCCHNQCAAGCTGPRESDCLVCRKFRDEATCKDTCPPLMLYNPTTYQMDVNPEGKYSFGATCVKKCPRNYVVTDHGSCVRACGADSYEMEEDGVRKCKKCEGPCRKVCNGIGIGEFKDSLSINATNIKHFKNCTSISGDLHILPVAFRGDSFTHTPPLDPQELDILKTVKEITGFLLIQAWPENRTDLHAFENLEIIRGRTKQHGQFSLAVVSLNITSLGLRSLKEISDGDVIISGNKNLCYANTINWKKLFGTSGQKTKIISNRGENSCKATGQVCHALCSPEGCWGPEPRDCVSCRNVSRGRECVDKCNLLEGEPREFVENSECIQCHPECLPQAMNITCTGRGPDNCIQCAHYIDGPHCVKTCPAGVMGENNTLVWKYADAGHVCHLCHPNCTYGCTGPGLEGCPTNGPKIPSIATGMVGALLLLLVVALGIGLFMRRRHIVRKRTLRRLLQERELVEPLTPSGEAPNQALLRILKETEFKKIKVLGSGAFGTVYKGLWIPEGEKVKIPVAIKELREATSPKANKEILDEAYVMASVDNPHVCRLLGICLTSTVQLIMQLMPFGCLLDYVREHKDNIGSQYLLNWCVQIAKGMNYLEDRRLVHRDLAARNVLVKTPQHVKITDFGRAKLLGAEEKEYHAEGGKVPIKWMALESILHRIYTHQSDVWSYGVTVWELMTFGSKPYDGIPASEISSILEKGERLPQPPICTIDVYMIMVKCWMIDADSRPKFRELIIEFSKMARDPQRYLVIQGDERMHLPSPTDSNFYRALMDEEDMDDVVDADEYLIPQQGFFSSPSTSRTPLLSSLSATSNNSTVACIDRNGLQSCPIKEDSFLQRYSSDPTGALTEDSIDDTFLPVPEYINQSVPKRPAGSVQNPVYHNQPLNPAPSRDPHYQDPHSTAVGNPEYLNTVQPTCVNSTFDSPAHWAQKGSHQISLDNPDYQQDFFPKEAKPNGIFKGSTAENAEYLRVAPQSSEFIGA

[14] = target: T5, WT EGFR (Homo sapiens, UniProt P00533); assay: WT EGFR cellular phosphorylation inhibition in A-431 (hEGF stimulated, MSD); conditions: A431 cells, 4 h compound, then 100 ng/ml hEGF 10 min;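 also: electrochemiluminescence read-out of EGFR Tyr1068 phosphorylation expressed as ratio to total EGFR, cells kept in medium with 1% FBS, compounds tested as a concentration series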
T5 construct: host or cells: A-431

SMILES: C=CC(=O)Nc1cc(Nc2ncnc(Nc3cc(F)c(F)cc3C(C)(C)O)n2)c(OC)cc1N(C)C[C@H]1CCCN1C [Compound 20, (R)-N-(5-(4-(4,5-difluoro-2-(2-hydroxypropan-2-yl)phenylamino)-1,3,5-triazin-2-ylamino)-4-methoxy-2-(methyl((1-methylpyrrolidin-2-yl)methyl)amino)phenyl)acrylamide]
- GI50 [1]: 99.8 nM
- GI50 [2]: 68.1 nM
- GI50 [3]: 7.7 nM
- IC50 [4]: 25.3 nM
- GI50 [5]: 30.8 nM
- GI50 [6]: 56.2 nM
- IC50 [7]: 11.3 nM
- GI50 [8]: 103 nM
- GI50 [9]: > 3000 nM
- IC50 [10]: 9.4 nM
- GI50 [11]: 16.5 nM
- GI50 [12]: 51.5 nM
- IC50 [13]: 0.5 nM
- IC50 [14]: 27.2 nM

SMILES: C=CC(=O)Nc1cc(Nc2ncnc(Nc3cc(Cl)c(F)cc3C(C)(C)O)n2)c(OC)cc1N1CCC[C@@H]1CN(C)C [Compound 31, (R)-N-(5-(4-(5-chloro-4-fluoro-2-(2-hydroxypropan-2-yl)phenylamino)-1,3,5-triazin-2-ylamino)-2-(2-((dimethylamino)methyl)pyrrolidin-1-yl)-4-methoxyphenyl)acrylamide]
- GI50 [1]: 30 nM
- GI50 [2]: 60.1 nM
- GI50 [3]: 4.2 nM
- IC50 [4]: 13.8 nM
- GI50 [5]: 9.2 nM
- GI50 [6]: 59.9 nM
- IC50 [7]: 4.3 nM
- GI50 [8]: 7.18 nM
- GI50 [9]: > 3000 nM
- IC50 [10]: 5 nM
- GI50 [11]: 4.2 nM
- GI50 [12]: 47.9 nM
- IC50 [13]: 0.5 nM
- IC50 [14]: 5.5 nM

SMILES: C=CC(=O)Nc1cc(Nc2ncc(C#N)c(Nc3cc(Cl)c(F)cc3C(C)(C)O)n2)c(OC)cc1N1CC[C@@H](N(C)C)C1 [Compound 85, (R)-N (5-(4-(5-chloro-4-fluoro-2-(2-hydroxypropan-2-yl)phenylamino)-5-cyanopyrimidin-2-ylamino)-2-(3-(dimethylamino)pyrrolidin-1-yl)-4-methoxyphenyl)acrylamide]
- GI50 [1]: 1.1 nM
- GI50 [2]: 129 nM
- GI50 [3]: 22.4 nM
- IC50 [4]: 35.5 nM
- GI50 [5]: 80.7 nM
- GI50 [6]: 11 nM
- IC50 [7]: 71.6 nM
- GI50 [8]: 2.6 nM
- GI50 [9]: > 3000 nM
- IC50 [10]: 32.1 nM
- GI50 [11]: 51.1 nM
- GI50 [12]: 63.1 nM
- IC50 [13]: 0.5 nM
- IC50 [14]: 68.5 nM

SMILES: C=CC(=O)Nc1cc(Nc2ncnc(Nc3cc(F)c(F)cc3C(C)(O)CC)n2)c(OC)cc1N1CCC[C@@H]1CN(C)C (stereo partly drawn) [Compound 57, N-(5-(4-(4,5-difluoro-2-(2-hydroxybutan-2-yl)phenylamino)-1,3,5-triazin-2-ylamino)-2-((R)-2-((dimethylamino)methyl)pyrrolidin-1-yl)-4-methoxyphenyl)acrylamide]
- GI50 [1]: 72 nM
- GI50 [2]: 18.7 nM
- GI50 [3]: 1.3 nM
- IC50 [4]: 8.5 nM
- GI50 [5]: 11.4 nM
- GI50 [6]: 34.6 nM
- IC50 [7]: 2.6 nM
- GI50 [8]: 22.9 nM
- GI50 [9]: > 3000 nM
- IC50 [10]: 7.1 nM
- GI50 [11]: 6.1 nM
- GI50 [12]: 14.8 nM
- IC50 [13]: 0.4 nM
- IC50 [14]: 10.5 nM

SMILES: C=CC(=O)Nc1cc(Nc2ncnc(Nc3cc(F)c(C4CC4)cc3C(C)(C)O)n2)c(OC)cc1N1CCC[C@@H]1CN(C)C [Compound 46, (R)-N-(5-(4-(4-cyclopropyl-5-fluoro-2-(2-hydroxypropan-2-yl)phenylamino)-1,3,5-triazin-2-ylamino)-2-(2-((dimethylamino)methyl)pyrrolidin-1-yl)-4-methoxyphenyl)acrylamide]
- GI50 [1]: 2.97 nM
- GI50 [2]: 16.8 nM
- GI50 [3]: 1.4 nM
- IC50 [4]: 2.5 nM
- GI50 [5]: 8.2 nM
- GI50 [6]: 6.49 nM
- IC50 [7]: 1.7 nM
- GI50 [8]: 0.9 nM
- GI50 [9]: 2580 nM
- IC50 [10]: 6.4 nM
- GI50 [11]: 4.5 nM
- GI50 [12]: 18.8 nM
- IC50 [13]: 0.2 nM
- IC50 [14]: 8.7 nM

SMILES: C=CC(=O)Nc1cc(Nc2ncnc(Nc3cc(Cl)c(F)cc3C(C)(C)O)n2)c(OC)cc1N1CC[C@@H]2CN(C)C[C@@H]21 [Compound 28, N-(5-(4-(5-chloro-4-fluoro-2-(2-hydroxypropan-2-yl)phenylamino)-1,3,5-triazin-2-ylamino)-4-methoxy-2-((3aR,6aR)-5-methylhexahydropyrrolo[3,4-b]pyrrol-1 (2H)-yl)phenyl)acrylamide]
- GI50 [1]: 119 nM
- GI50 [2]: 114 nM
- GI50 [3]: 8.9 nM
- IC50 [4]: 50.6 nM
- GI50 [5]: 58.2 nM
- GI50 [6]: 230 nM
- IC50 [7]: 15.2 nM
- GI50 [8]: 34 nM
- GI50 [9]: > 3000 nM
- IC50 [10]: 21.7 nM
- GI50 [11]: 21.2 nM
- GI50 [12]: 67.7 nM
- IC50 [13]: 1.4 nM
- IC50 [14]: 42.1 nM

SMILES: C=CC(=O)Nc1cc(Nc2ncnc(Nc3cc(F)c(F)cc3C(C)(O)CC)n2)c(OC)cc1N1CCC[C@H]1CN(C)C (stereo partly drawn) [Compound 58, N-(5-(4-(4,5-difluoro-2-(2-hydroxybutan-2-yl)phenylamino)-1,3,5-triazin-2-ylamino)-2-((S)-2-((dimethylamino)methyl)pyrrolidin-1-yl)-4-methoxyphenyl)acrylamide]
- GI50 [1]: 320 nM
- GI50 [2]: 553 nM
- GI50 [3]: 13.1 nM
- IC50 [4]: 297 nM
- GI50 [5]: 251 nM
- GI50 [6]: 372 nM
- IC50 [7]: 117 nM
- GI50 [8]: 262 nM
- GI50 [9]: > 3000 nM
- IC50 [10]: 77.3 nM
- GI50 [11]: 178 nM
- GI50 [12]: 210 nM
- IC50 [13]: 3.6 nM
- IC50 [14]: 627 nM

SMILES: C=CC(=O)Nc1cc(Nc2ncnc(Nc3cc(F)c(F)cc3C(C)(C)O)n2)c(OC)cc1N1CC[C@@H]2CN(C)C[C@@H]21 [Compound 17, N-(5-(4-(4,5-difluoro-2-(2-hydroxypropan-2-yl)phenylamino)-1,3,5-triazin-2-ylamino)-4-methoxy-2-((3aR,6aR)-5-methylhexahydropyrrolo[3,4-b]pyrrol-1(2H)-yl)phenyl) acrylamide]
- GI50 [1]: 41.5 nM
- GI50 [2]: 37.7 nM
- GI50 [3]: 3.7 nM
- IC50 [4]: 13 nM
- GI50 [5]: 19.6 nM
- GI50 [6]: 28 nM
- IC50 [7]: 6.1 nM
- GI50 [8]: 53.7 nM
- GI50 [9]: > 3000 nM
- IC50 [10]: 7.8 nM
- GI50 [11]: 13.2 nM
- GI50 [12]: 25 nM
- IC50 [13]: 0.3 nM
- IC50 [14]: 13.5 nM

SMILES: C=CC(=O)Nc1cc(Nc2ncnc(Nc3cc(Cl)c(F)cc3C(C)(O)CC)n2)c(OC)cc1N1CCC[C@@H]1CN(C)C (stereo partly drawn) [Compound 63, N-(5-(4-(5-chloro-4-fluoro-2-(2-hydroxybutan-2-yl)phenylamino)-1,3,5-triazin-2-ylamino)-2-((R)-2-((dimethylamino)methyl)pyrrolidin-1-yl)-4-methoxyphenyl)acrylamide]
- GI50 [1]: 63.3 nM
- GI50 [2]: 23.6 nM
- GI50 [3]: 1.1 nM
- IC50 [4]: 5.9 nM
- GI50 [5]: 13.6 nM
- GI50 [6]: 14.9 nM
- IC50 [7]: 1.4 nM
- GI50 [8]: 11.6 nM
- GI50 [9]: > 3000 nM
- IC50 [10]: 6.4 nM
- GI50 [11]: 4.4 nM
- GI50 [12]: 17.2 nM
- IC50 [13]: 0.4 nM
- IC50 [14]: 14.3 nM

SMILES: C=CC(=O)Nc1cc(Nc2ncnc(Nc3ccc(F)c(F)c3C(C)(C)O)n2)c(OC)cc1N(C)CCN(C)C [Compound 9, N-(5-(4-(3,4-difluoro-2-(2-hydroxypropan-2-yl)phenylamino)-1,3,5-triazin-2-ylamino)-2-((2-(dimethylamino)ethyl)(methyl)amino)-4-methoxyphenyl)ac rylamide]
- GI50 [1]: 309 nM
- GI50 [2]: 156 nM
- GI50 [3]: 44.6 nM
- IC50 [4]: 51.3 nM
- GI50 [5]: 191 nM
- GI50 [6]: 700 nM
- IC50 [7]: 13.9 nM
- GI50 [8]: 551 nM
- GI50 [9]: > 3000 nM
- IC50 [10]: 62.5 nM
- GI50 [11]: 83.1 nM
- GI50 [12]: 180 nM
- IC50 [13]: 2 nM
- IC50 [14]: 131 nM

Reference: patent US20230293535A1, “ERBB/BTK INHIBITORS” (Dizal (Jiangsu) Pharmaceutical Co., Ltd., priority 2018, published 2023)
